# Test results as given in ChEMBL document CHEMBL2429768, “Eco-friendly synthesis and antimicrobial activities of substituted-5-(1H-indol-3-yl)methylene)-2,2-dimethyl-1,3-dioxane-4,6-dione derivatives” (2013).
# Assays:
# Format in all cases: functional
# Staphylococcus aureus [1] = assay: Antibacterial activity against Staphylococcus aureus ATCC 6538 at 300 ug/ml after 24 hrs by agar well diffusion method; conditions: ATCC 6538, 24 h, read-out: DIZ
# Klebsiella pneumoniae [2] = assay: Antibacterial activity against Klebsiella pneumoniae at 500 ug/ml after 24 hrs by agar well diffusion method; conditions: read-out: DIZ
# Aspergillus niger [3] = assay: Antifungal activity against Aspergillus niger at 200 ug/ml after 72 hrs by agar well diffusion method; conditions: read-out: DIZ
# Bacillus subtilis [4] = assay: Antibacterial activity against Bacillus subtilis at 500 ug/ml after 24 hrs by agar well diffusion method; conditions: read-out: DIZ
# Staphylococcus aureus [5] = assay: Antibacterial activity against Staphylococcus aureus ATCC 6538 after 24 hrs by agar well diffusion method; conditions: ATCC 6538, 24 h
# Staphylococcus aureus [6] = assay: Antibacterial activity against Staphylococcus aureus ATCC 6538 at 100 ug/ml after 24 hrs by agar well diffusion method; conditions: ATCC 6538, 24 h, read-out: DIZ
# Rhizoctonia solani [7] = assay: Antifungal activity against Rhizoctonia solani at 50 ug/ml after 72 hrs by agar well diffusion method; conditions: read-out: DIZ
# Aspergillus niger [8] = assay: Antifungal activity against Aspergillus niger at 100 ug/ml after 72 hrs by agar well diffusion method; conditions: read-out: DIZ
# Aspergillus flavus [9] = assay: Antifungal activity against Aspergillus flavus at 300 ug/ml after 72 hrs by agar well diffusion method; conditions: read-out: DIZ
# Klebsiella pneumoniae [10] = assay: Antibacterial activity against Klebsiella pneumoniae at 200 ug/ml after 24 hrs by agar well diffusion method; conditions: read-out: DIZ
# Klebsiella pneumoniae [11] = assay: Antibacterial activity against Klebsiella pneumoniae at 300 ug/ml after 24 hrs by agar well diffusion method; conditions: read-out: DIZ
# Escherichia coli [12] = assay: Antibacterial activity against Escherichia coli ATCC 8739 at 500 ug/ml after 24 hrs by agar well diffusion method; conditions: ATCC 8739, 24 h, read-out: DIZ
# Bacillus subtilis [13] = assay: Antibacterial activity against Bacillus subtilis at 50 ug/ml after 24 hrs by agar well diffusion method; conditions: read-out: DIZ
# Fusarium oxysporum [14] = assay: Antifungal activity against Fusarium oxysporum after 72 hrs by agar well diffusion method
# Rhizoctonia solani [15] = assay: Antifungal activity against Rhizoctonia solani at 200 ug/ml after 72 hrs by agar well diffusion method; conditions: read-out: DIZ
# Escherichia coli [16] = assay: Antibacterial activity against Escherichia coli ATCC 8739 at 200 ug/ml after 24 hrs by agar well diffusion method; conditions: ATCC 8739, 24 h, read-out: DIZ
# Aspergillus flavus [17] = assay: Antifungal activity against Aspergillus flavus at 500 ug/ml after 72 hrs by agar well diffusion method; conditions: read-out: DIZ
# Aspergillus niger [18] = assay: Antifungal activity against Aspergillus niger after 72 hrs by agar well diffusion method
# Klebsiella pneumoniae [19] = assay: Antibacterial activity against Klebsiella pneumoniae at 50 ug/ml after 24 hrs by agar well diffusion method; conditions: read-out: DIZ
# Rhizoctonia solani [20] = assay: Antifungal activity against Rhizoctonia solani at 500 ug/ml after 72 hrs by agar well diffusion method; conditions: read-out: DIZ
# Rhizoctonia solani [21] = assay: Antifungal activity against Rhizoctonia solani after 72 hrs by agar well diffusion method
# Bacillus subtilis [22] = assay: Antibacterial activity against Bacillus subtilis at 200 ug/ml after 24 hrs by agar well diffusion method; conditions: read-out: DIZ
# Fusarium oxysporum [23] = assay: Antifungal activity against Fusarium oxysporum at 100 ug/ml after 72 hrs by agar well diffusion method; conditions: read-out: DIZ
# Staphylococcus aureus [24] = assay: Antibacterial activity against Staphylococcus aureus ATCC 6538 at 200 ug/ml after 24 hrs by agar well diffusion method; conditions: ATCC 6538, 24 h, read-out: DIZ
# Escherichia coli [25] = assay: Antibacterial activity against Escherichia coli ATCC 8739 at 50 ug/ml after 24 hrs by agar well diffusion method; conditions: ATCC 8739, 24 h, read-out: DIZ
# Aspergillus niger [26] = assay: Antifungal activity against Aspergillus niger at 500 ug/ml after 72 hrs by agar well diffusion method; conditions: read-out: DIZ
# Staphylococcus aureus [27] = assay: Antibacterial activity against Staphylococcus aureus ATCC 6538 at 50 ug/ml after 24 hrs by agar well diffusion method; conditions: ATCC 6538, 24 h, read-out: DIZ
# Fusarium oxysporum [28] = assay: Antifungal activity against Fusarium oxysporum at 50 ug/ml after 72 hrs by agar well diffusion method; conditions: read-out: DIZ
# Fusarium oxysporum [29] = assay: Antifungal activity against Fusarium oxysporum at 300 ug/ml after 72 hrs by agar well diffusion method; conditions: read-out: DIZ
# Fusarium oxysporum [30] = assay: Antifungal activity against Fusarium oxysporum at 500 ug/ml after 72 hrs by agar well diffusion method; conditions: read-out: DIZ
# Bacillus subtilis [31] = assay: Antibacterial activity against Bacillus subtilis at 300 ug/ml after 24 hrs by agar well diffusion method; conditions: read-out: DIZ
# Rhizoctonia solani [32] = assay: Antifungal activity against Rhizoctonia solani at 300 ug/ml after 72 hrs by agar well diffusion method; conditions: read-out: DIZ
# Staphylococcus aureus [33] = assay: Antibacterial activity against Staphylococcus aureus ATCC 6538 at 500 ug/ml after 24 hrs by agar well diffusion method; conditions: ATCC 6538, 24 h, read-out: DIZ
# Aspergillus flavus [34] = assay: Antifungal activity against Aspergillus flavus at 100 ug/ml after 72 hrs by agar well diffusion method; conditions: read-out: DIZ
# Klebsiella pneumoniae [35] = assay: Antibacterial activity against Klebsiella pneumoniae at 100 ug/ml after 24 hrs by agar well diffusion method; conditions: read-out: DIZ
# Bacillus subtilis [36] = assay: Antibacterial activity against Bacillus subtilis after 24 hrs by agar well diffusion method
# Aspergillus flavus [37] = assay: Antifungal activity against Aspergillus flavus at 50 ug/ml after 72 hrs by agar well diffusion method; conditions: read-out: DIZ
# Bacillus subtilis [38] = assay: Antibacterial activity against Bacillus subtilis at 100 ug/ml after 24 hrs by agar well diffusion method; conditions: read-out: DIZ
# Escherichia coli [39] = assay: Antibacterial activity against Escherichia coli ATCC 8739 at 300 ug/ml after 24 hrs by agar well diffusion method; conditions: ATCC 8739, 24 h, read-out: DIZ
# Aspergillus flavus [40] = assay: Antifungal activity against Aspergillus flavus at 200 ug/ml after 72 hrs by agar well diffusion method; conditions: read-out: DIZ
# Aspergillus niger [41] = assay: Antifungal activity against Aspergillus niger at 300 ug/ml after 72 hrs by agar well diffusion method; conditions: read-out: DIZ
# Escherichia coli [42] = assay: Antibacterial activity against Escherichia coli ATCC 8739 after 24 hrs by agar well diffusion method; conditions: ATCC 8739, 24 h
# Escherichia coli [43] = assay: Antibacterial activity against Escherichia coli ATCC 8739 at 100 ug/ml after 24 hrs by agar well diffusion method; conditions: ATCC 8739, 24 h, read-out: DIZ
# Aspergillus flavus [44] = assay: Antifungal activity against Aspergillus flavus after 72 hrs by agar well diffusion method
# Rhizoctonia solani [45] = assay: Antifungal activity against Rhizoctonia solani at 100 ug/ml after 72 hrs by agar well diffusion method; conditions: read-out: DIZ
# Klebsiella pneumoniae [46] = assay: Antibacterial activity against Klebsiella pneumoniae after 24 hrs by agar well diffusion method
# Fusarium oxysporum [47] = assay: Antifungal activity against Fusarium oxysporum at 200 ug/ml after 72 hrs by agar well diffusion method; conditions: read-out: DIZ
# Aspergillus niger [48] = assay: Antifungal activity against Aspergillus niger at 50 ug/ml after 72 hrs by agar well diffusion method; conditions: read-out: DIZ
smiles,measurement,setting,value
CCn1cc(C=C2C(=O)OC(C)(C)OC2=O)c2cc([N+](=O)[O-])ccc21,zone of inhibition at 300 µg/mL,Staphylococcus aureus [1],16 mm
same,zone of inhibition at 500 µg/mL,Klebsiella pneumoniae [2],32 mm
same,zone of inhibition at 200 µg/mL,Aspergillus niger [3],14 mm
same,zone of inhibition at 500 µg/mL,Bacillus subtilis [4],22 mm
same,MIC,Staphylococcus aureus [5],25 µg/mL
same,zone of inhibition at 100 µg/mL,Staphylococcus aureus [6],10 mm
same,zone of inhibition at 50 µg/mL,Rhizoctonia solani [7],7 mm
same,zone of inhibition at 100 µg/mL,Aspergillus niger [8],10 mm
same,zone of inhibition at 300 µg/mL,Aspergillus flavus [9],15 mm
same,zone of inhibition at 200 µg/mL,Klebsiella pneumoniae [10],18 mm
same,zone of inhibition at 300 µg/mL,Klebsiella pneumoniae [11],23 mm
same,zone of inhibition at 500 µg/mL,Escherichia coli [12],31 mm
same,zone of inhibition at 50 µg/mL,Bacillus subtilis [13],4 mm
same,MIC,Fusarium oxysporum [14],35 µg/mL
same,zone of inhibition at 200 µg/mL,Rhizoctonia solani [15],16 mm
same,zone of inhibition at 200 µg/mL,Escherichia coli [16],15 mm
same,zone of inhibition at 500 µg/mL,Aspergillus flavus [17],23 mm
same,MIC,Aspergillus niger [18],40 µg/mL
same,zone of inhibition at 50 µg/mL,Klebsiella pneumoniae [19],9 mm
same,zone of inhibition at 500 µg/mL,Rhizoctonia solani [20],29 mm
same,MIC,Rhizoctonia solani [21],35 µg/mL
same,zone of inhibition at 200 µg/mL,Bacillus subtilis [22],11 mm
same,zone of inhibition at 100 µg/mL,Fusarium oxysporum [23],12 mm
same,zone of inhibition at 200 µg/mL,Staphylococcus aureus [24],13 mm
same,zone of inhibition at 50 µg/mL,Escherichia coli [25],8 mm
same,zone of inhibition at 500 µg/mL,Aspergillus niger [26],25 mm
same,zone of inhibition at 50 µg/mL,Staphylococcus aureus [27],6 mm
same,zone of inhibition at 50 µg/mL,Fusarium oxysporum [28],7 mm
same,zone of inhibition at 300 µg/mL,Fusarium oxysporum [29],21 mm
same,zone of inhibition at 500 µg/mL,Fusarium oxysporum [30],29 mm
same,zone of inhibition at 300 µg/mL,Bacillus subtilis [31],14 mm
same,zone of inhibition at 300 µg/mL,Rhizoctonia solani [32],21 mm
same,zone of inhibition at 500 µg/mL,Staphylococcus aureus [33],26 mm
same,zone of inhibition at 100 µg/mL,Aspergillus flavus [34],9 mm
same,zone of inhibition at 100 µg/mL,Klebsiella pneumoniae [35],14 mm
same,MIC,Bacillus subtilis [36],30 µg/mL
same,zone of inhibition at 50 µg/mL,Aspergillus flavus [37],4 mm
same,zone of inhibition at 100 µg/mL,Bacillus subtilis [38],9 mm
same,zone of inhibition at 300 µg/mL,Escherichia coli [39],20 mm
same,zone of inhibition at 200 µg/mL,Aspergillus flavus [40],12 mm
same,zone of inhibition at 300 µg/mL,Aspergillus niger [41],18 mm
same,MIC,Escherichia coli [42],15 µg/mL
same,zone of inhibition at 100 µg/mL,Escherichia coli [43],13 mm
same,MIC,Aspergillus flavus [44],40 µg/mL
same,zone of inhibition at 100 µg/mL,Rhizoctonia solani [45],12 mm
same,MIC,Klebsiella pneumoniae [46],15 µg/mL
same,zone of inhibition at 200 µg/mL,Fusarium oxysporum [47],16 mm
same,zone of inhibition at 50 µg/mL,Aspergillus niger [48],6 mm
Cn1cc(C=C2C(=O)OC(C)(C)OC2=O)c2cc([N+](=O)[O-])ccc21,zone of inhibition at 300 µg/mL,Staphylococcus aureus [1],18 mm
same,zone of inhibition at 500 µg/mL,Klebsiella pneumoniae [2],31 mm
same,zone of inhibition at 200 µg/mL,Aspergillus niger [3],14 mm
same,zone of inhibition at 500 µg/mL,Bacillus subtilis [4],23 mm
same,MIC,Staphylococcus aureus [5],25 µg/mL
same,zone of inhibition at 100 µg/mL,Staphylococcus aureus [6],10 mm
same,zone of inhibition at 50 µg/mL,Rhizoctonia solani [7],7 mm
same,zone of inhibition at 100 µg/mL,Aspergillus niger [8],10 mm
same,zone of inhibition at 300 µg/mL,Aspergillus flavus [9],15 mm
same,zone of inhibition at 200 µg/mL,Klebsiella pneumoniae [10],18 mm
same,zone of inhibition at 300 µg/mL,Klebsiella pneumoniae [11],23 mm
same,zone of inhibition at 500 µg/mL,Escherichia coli [12],30 mm
same,zone of inhibition at 50 µg/mL,Bacillus subtilis [13],4 mm
same,MIC,Fusarium oxysporum [14],35 µg/mL
same,zone of inhibition at 200 µg/mL,Rhizoctonia solani [15],16 mm
same,zone of inhibition at 200 µg/mL,Escherichia coli [16],16 mm
same,zone of inhibition at 500 µg/mL,Aspergillus flavus [17],23 mm
same,MIC,Aspergillus niger [18],40 µg/mL
same,zone of inhibition at 50 µg/mL,Klebsiella pneumoniae [19],9 mm
same,zone of inhibition at 500 µg/mL,Rhizoctonia solani [20],29 mm
same,MIC,Rhizoctonia solani [21],35 µg/mL
same,zone of inhibition at 200 µg/mL,Bacillus subtilis [22],12 mm
same,zone of inhibition at 100 µg/mL,Fusarium oxysporum [23],12 mm
same,zone of inhibition at 200 µg/mL,Staphylococcus aureus [24],14 mm
same,zone of inhibition at 50 µg/mL,Escherichia coli [25],8 mm
same,zone of inhibition at 500 µg/mL,Aspergillus niger [26],25 mm
same,zone of inhibition at 50 µg/mL,Staphylococcus aureus [27],6 mm
same,zone of inhibition at 50 µg/mL,Fusarium oxysporum [28],7 mm
same,zone of inhibition at 300 µg/mL,Fusarium oxysporum [29],21 mm
same,zone of inhibition at 500 µg/mL,Fusarium oxysporum [30],29 mm
same,zone of inhibition at 300 µg/mL,Bacillus subtilis [31],15 mm
same,zone of inhibition at 300 µg/mL,Rhizoctonia solani [32],21 mm
same,zone of inhibition at 500 µg/mL,Staphylococcus aureus [33],25 mm
same,zone of inhibition at 100 µg/mL,Aspergillus flavus [34],9 mm
same,zone of inhibition at 100 µg/mL,Klebsiella pneumoniae [35],14 mm
same,MIC,Bacillus subtilis [36],30 µg/mL
same,zone of inhibition at 50 µg/mL,Aspergillus flavus [37],4 mm
same,zone of inhibition at 100 µg/mL,Bacillus subtilis [38],9 mm
same,zone of inhibition at 300 µg/mL,Escherichia coli [39],20 mm
same,zone of inhibition at 200 µg/mL,Aspergillus flavus [40],12 mm
same,zone of inhibition at 300 µg/mL,Aspergillus niger [41],18 mm
same,MIC,Escherichia coli [42],15 µg/mL
same,zone of inhibition at 100 µg/mL,Escherichia coli [43],13 mm
same,MIC,Aspergillus flavus [44],40 µg/mL
same,zone of inhibition at 100 µg/mL,Rhizoctonia solani [45],12 mm
same,MIC,Klebsiella pneumoniae [46],15 µg/mL
same,zone of inhibition at 200 µg/mL,Fusarium oxysporum [47],16 mm
same,zone of inhibition at 50 µg/mL,Aspergillus niger [48],6 mm
